{"source": "patent US8048642B2", "about": "“Heme choline esters and uses thereof” (priority 2007, dated 2011)", "format_in_all_cases": "biochemical", "key": {"[1]": {"molecular_target": "butyrylcholine esterase (BCE) (Equus caballus, UniProt P81908)", "sequence (P81908 whole entry)": "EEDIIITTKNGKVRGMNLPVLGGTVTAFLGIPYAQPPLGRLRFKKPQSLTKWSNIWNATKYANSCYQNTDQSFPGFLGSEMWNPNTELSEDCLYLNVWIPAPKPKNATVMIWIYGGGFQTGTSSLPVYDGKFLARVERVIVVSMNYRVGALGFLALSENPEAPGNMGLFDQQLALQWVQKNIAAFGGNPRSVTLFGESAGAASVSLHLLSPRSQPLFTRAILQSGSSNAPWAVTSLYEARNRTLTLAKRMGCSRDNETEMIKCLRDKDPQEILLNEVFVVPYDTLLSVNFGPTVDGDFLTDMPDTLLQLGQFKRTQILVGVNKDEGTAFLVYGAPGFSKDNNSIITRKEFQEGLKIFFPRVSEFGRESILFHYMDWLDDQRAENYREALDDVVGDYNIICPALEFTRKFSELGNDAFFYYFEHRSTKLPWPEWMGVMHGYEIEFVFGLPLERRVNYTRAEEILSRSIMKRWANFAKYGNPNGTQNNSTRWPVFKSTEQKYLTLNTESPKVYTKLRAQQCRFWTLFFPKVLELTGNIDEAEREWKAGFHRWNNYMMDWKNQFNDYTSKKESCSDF", "assay": "Hydrolysis of heme bis choline ester by butyrylcholine esterase, followed by HPLC", "conditions": "bis choline ester with BCE (50 units) in phosphate buffer pH 7.0, HPLC at 400 nm", "description": "To confirm enzymatic hydrolysis of heme bis choline ester, a sample of bis choline ester in methanol was added to a solution of butyrylcholine esterase (BCE) (50 units) in phosphate buffer (pH 7.0). The progress of the hydrolysis was determined by HPLC analysis of the reaction mixture using a Waters Xterra C18 reverse phase column (4.6×50 mm). A gradient elution was performed starting with 95:5 water (+0.1% TFA):acetonitrile (+0.1% TFA) up to 0:100 over 10 minutes followed by isocratic elution with acetonitrile (+0.1% TFA) for 5 minutes. […] Under these conditions the bis ester elutes first (tR=5.2 min) followed by the monoester (5.9 min) and heme (6.6 min)."}, "[2]": {"molecular_target": "T1, apo-horseradish peroxidase (apo-HRP) (Armoracia rusticana, UniProt P00433)", "T1 sequence (P00433 31-338)": "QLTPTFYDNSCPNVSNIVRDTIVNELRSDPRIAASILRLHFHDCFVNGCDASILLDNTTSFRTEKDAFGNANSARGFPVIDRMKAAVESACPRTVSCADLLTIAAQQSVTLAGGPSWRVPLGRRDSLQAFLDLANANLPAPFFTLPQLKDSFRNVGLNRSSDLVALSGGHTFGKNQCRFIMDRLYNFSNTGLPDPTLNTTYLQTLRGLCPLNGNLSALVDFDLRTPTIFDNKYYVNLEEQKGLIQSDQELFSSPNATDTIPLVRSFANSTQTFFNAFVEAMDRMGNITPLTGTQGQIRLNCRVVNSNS", "assay": "Signal enhancement from HRP-based cascade using a chromogenic substrate (TMB)", "conditions": "6 minutes after adding TMB liquid substrate; mixtures pre-incubated 16 hours at room temperature", "description": "The samples in Table 2 were prepared from the following stock solutions. A 120 μM stock solution of apo-HRP was prepared by adding 2 mL phosphate-buffered saline (PBS, Pierce 28372) to 10 mg lyophilized apo-HRP (Sigma 6278, MW=43000 g/mol). A 250 μM stock solution of horseradish peroxidase type VI (HRP, Sigma P8375, MW=44000 g/mol) was prepared by solubilizing 11 mg lyophilized protein in 1 mL 100 mM sodium phosphate, pH 7.0. A 1 kU/mL stock solution of butyrylcholine esterase was prepared by dissolving 1 kU lyophilized protein (Sigma C1057) in 1 mL phosphate-buffered saline (PBS, Pierce 28372). […] The 1 cm-path length absorbance of this 10% methanol solution was measured to be 17 absorbance units (au) at 390 nm using a NanoDrop-1000 Spectrophotometer. […]\nSamples A1, A2, B1, and B2 were each combined with 95 μL 3,3′,5,5′-tetramethylbenzidine (TMB) liquid substrate system (Sigma T8665), which includes hydrogen peroxide. After 6 minutes OD was determined at 650 nm in a 96-well format using a SpectraMax M2 plate reader (Molecular Devices). These signals are recorded in Table 2 above.\nRelative signal enhancement was calculated by subtracting appropriate background signals from wells A1 and A2, and then taking a ratio. […] The calculated signal enhancement is thus equal to (A1−B2)/(A2−B1), which corresponds to (1.05−0.16)/(0.10−0.04)=15. […]"}, "[3]": {"molecular_target": "T1, apo-horseradish peroxidase (apo-HRP)", "assay": "Blocking and rescue of peroxidase activity with a chemiluminescent substrate", "conditions": "for Rescue of peroxidase activity of apo-HRP plus heme bis choline ester: esterase added to apo-HRP and heme bis choline ester", "description": "(§1) A 1-kU/mL stock solution of butyrylcholine esterase was prepared by dissolving 1 kU of lyophilized protein (Sigma C1057) in 1 mL phosphate-buffered saline (PBS, Pierce 28372). An activity of 900 U per mg protein and MW=250000 g/mol was assumed and the concentration of the resultant solution was estimated as 4 μM.\nas §1, with “1 kU/mL” for “1-kU/mL”, “acetylcholine” for “butyrylcholine”, “kU” for “kU of”, “C2888)” for “C1057)”, “1000” for “900”, “MW=280000” for “MW=250000”\nA fresh 1 mM solution of heme was prepared in 100 mM borate buffer, pH 9.1, as described in Example 5. The 1 cm-path length absorbance of this solution was measured to be 40 at 390 nm using a NanoDrop-1000 Spectrophotometer (NanoDrop Technologies). A 0.1 mM heme solution was then prepared by mixing 100 μL of this stock with 900 μL in PBS.\nLess than 1 mg heme bis choline ester was dissolved in 100 μL methanol. 10 μL of the methanol solution was then mixed with 90 μL 100 mM borate buffer, pH 9.1. The 1 cm-path length absorbance of this 10% methanol solution was measured to be 17 absorbance units (au) at 390 nm using a NanoDrop-1000 Spectrophotometer. Assuming the extinction coefficient of heme bis choline ester in 10% methanol was not substantially different than that of heme in PBS, a 0.1 mM solution of heme bis choline ester was then prepared by mixing 23.5 μL of the 10% methanol solution with 77.5 μL PBS.\nSolutions of 0.3 μM apo-HRP, 10 μM heme and 10 μM heme bis choline ester in PBS were prepared by dilution of these stock solutions with PBS. […]\n90 μL of freshly mixed chemiluminescent substrate (Sigma CPS260, an enhanced luminol product with a stabilized peroxide buffer solution) was added to reaction mixtures 1-6, which were allowed to incubate at room temperature for 5 minutes and the luminescence units (LU) for each was determined with a SpectraMax M2 plate reader in a 96-well format (Molecular Devices), shown below in Table 5."}, "[4]": {"molecular_target": "T1, apo-horseradish peroxidase (apo-HRP)", "assay": "Recombination of heme and apo-HRP, TMB colorimetry", "conditions": "heme mixed with 30 pmol apo-horseradish peroxidase, 30 min, background corrected", "description": "A 250 μM stock solution of horseradish peroxidase type VI (HRP, Sigma P8375, MW=44000 g/mol) was prepared by solubilizing 11 mg of lyophilized protein in 1 mL 100 mM sodium phosphate, pH 7.0.\nHeme was extracted from horseradish peroxidase type VI (Sigma P8375) according to the method of Teale (Biochim. Biophys. Acta 35, 543, (1959)). The resultant apo-HRP was dialyzed into 100 mM sodium phosphate, pH 7.0, with 0.1 mM calcium chloride. The concentration of this stock apo-HRP solution was estimated from absorbance at 280 nm as 30 μM by assuming an extinction coefficient of 20000 cm^−1 M^−1 (Lasagna et al., Biophys. J. 76, 443, (1999)).\nWithin an hour before performing the peroxidase assay a fresh stock solution of approximately 1 mM heme (MW 652 g/mol) was prepared by first dissolving 38.9 mg heme (Sigma H5533) in 1 mL of 1.0M NaOH and then mixing 100 μL of the resulting solution with 6 mL 100 mM borate buffer, pH 9.1.\nThe absorbance data in Table 4 was acquired using a SpectraMax M2 plate reader (Molecular Devices) in 96-sample format. The HRP stock solution was diluted serially with 100 mM sodium phosphate, pH 7.0, to make 2000, 500 and 50 pM solutions. 10 μL of each solution was then mixed with 90 μL 3,3′,5,5′-tetramethylbenzidine (TMB) liquid substrate system (Sigma T8665) to define t=0. The absorbance at 650 nm was measured after 30 min and corrected for the absorbance of TMB solution without added HRP.\nThe heme stock solution was diluted serially with 100 mM borate buffer, pH 9.1, to make 2000 pM, 500 pM, and 50 pM solutions. 10 μL of each solution was first mixed with 1 μL of the apo-HRP stock solution and then immediately mixed with 90 μL TMB liquid substrate system to define t=0. The absorbance at 650 nm was measured after 30 min and corrected for the absorbance of a mixture of apo-HRP and TMB liquid substrate system without added heme."}}, "data": [{"compound": "heme mono choline ester [Mono ester]", "values": [{"measurement": "Hydrolysis vs. Time, converted to concentration", "setting": "[1]; 0.75 hr", "value": 28, "unit": "AUC units"}, {"measurement": "Hydrolysis vs. Time, converted to concentration", "setting": "[1]; 2.75 hr", "value": 29, "unit": "AUC units"}, {"measurement": "Hydrolysis vs. Time, converted to concentration", "setting": "[1]; 21 hr", "value": 24, "unit": "AUC units"}]}, {"compound": "A2: 5 μL of 0.13 nM HRP (0.7 fmol) [Sample A2]", "values": [{"measurement": "OD 650 nm", "setting": "[2]", "value": 0.10}]}, {"compound": "BCE: butyrylcholine esterase (Sigma C1057)", "values": [{"measurement": "Rescue of peroxidase activity of apo-HRP plus heme bis choline ester", "setting": "[3]", "value": "rescued"}]}, {"compound": "horseradish peroxidase: horseradish peroxidase type VI (Sigma P8375)", "values": [{"measurement": "OD 650 nm", "setting": "[4]; 5 fmol", "value": 0.88}, {"measurement": "OD 650 nm", "setting": "[4]; 20 fmol", "value": 3.4}]}, {"compound": "acetylcholine esterase: acetylcholine esterase (Sigma C2888)", "values": [{"measurement": "Rescue of peroxidase activity of apo-HRP plus heme bis choline ester", "setting": "[3]", "value": "did not demonstrably rescue peroxidase activity"}]}, {"compound": "heme bis choline ester [Bis ester]", "values": [{"measurement": "Hydrolysis vs. Time, converted to concentration", "setting": "[1]; 0 hr", "value": 100, "unit": "AUC units"}, {"measurement": "Hydrolysis vs. Time, converted to concentration", "setting": "[1]; 0.75 hr", "value": 60, "unit": "AUC units"}, {"measurement": "Hydrolysis vs. Time, converted to concentration", "setting": "[1]; 2.75 hr", "value": 52, "unit": "AUC units"}, {"measurement": "Hydrolysis vs. Time, converted to concentration", "setting": "[1]; 21 hr", "value": 41, "unit": "AUC units"}, {"measurement": "Peroxidase activity of mixture with apo-HRP compared with heme", "setting": "[3]; sample 1 versus sample 4, 10-fold excess of heme bis choline ester", "value": "less peroxidase activity"}]}, {"compound": "C=CC1=C(C)c2cc3[n-]c(cc4[n-]c(cc5nc(cc1n2)C(C)=C5C=C)c(C)c4CCC(=O)O)c(CCC(=O)O)c3C.[Fe+2]", "note": "[Heme, heme]", "values": [{"measurement": "HPLC peak area (hydrolysis progress)", "setting": "[1]; 0.75 hr", "value": 7, "unit": "AUC units"}, {"measurement": "HPLC peak area (hydrolysis progress)", "setting": "[1]; 2.75 hr", "value": 12, "unit": "AUC units"}, {"measurement": "HPLC peak area (hydrolysis progress)", "setting": "[1]; 21 hr", "value": 21, "unit": "AUC units"}, {"measurement": "OD 650 nm", "setting": "[4]; 5 fmol", "value": 0.07}, {"measurement": "OD 650 nm", "setting": "[4]; 20 fmol", "value": 0.79}]}]}
